US20250368648A1, “MULTI-CYCLIC IRAK AND FLT3 INHIBITING COMPOUNDS AND USES THEREOF” (CHILDREN'S HOSPITAL MEDICAL CENTER, priority 2022, published 2025)
“Also recorded” adds a separate entry of the source.

Legend:
THP1 cells = test: Combination drug screening, Cell Titer Glo, THP1 cells; conditions: FLT3 WT setting (THP1 cells), Cell Titer Glo, 48 hours;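 further: luminescence read out in 1536-well plates seeded with 500 THP1 cells per well, each drug spanning a 10-point concentration range in the combination matrix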
Source text: A smaller concentration indicates higher potency to synergize with Venetoclax. […] The numbers in each cell represent the % response (left) or the Delta Bliss score (right) at each given concentration combination.
A smaller concentration indicates higher potency to synergize with azacitidine. […] The numbers in each cell represent the % response (left) or the Delta Bliss score (right) at each given concentration combination.
(§1) This is a cell line that has the FLT3 ITD mutation but also the FLT3 D835Y kinase domain mutation. […] Excess HSA is a measure of synergy vs. additivity or antagonism, wherein a negative Excess HSA value is indicative of synergy.
Briefly, 10 nL of compounds were acoustically dispensed into 1536-well white polystyrene tissue culture-treated plates with an Echo 550 acoustic liquid handler (Labcyte). MOLM14 (D835Y) or THP1 cells were then added to compound-containing plates at a density of 500-cells/well in 5 μL of medium. A 10-point custom concentration range was used for all listed drugs. […] 48h post compound addition, 3 μL of Cell Titer Glo (Promega) were added to each well and plates were incubated at room temperature for 15 minutes with the stainless-steel lid in place. Luminescence readings were taken using a Viewlux imager (PerkinElmer) with a 2 second exposure time per plate.

[1] = test system: MOLM14-FLT3-ITD(D835Y) acute myeloid leukemia cells; test: AML efficacy study in mice engrafted with MOLM14-FLT3-ITD(D835Y); format: in vivo
Procedure: Female, NSG-SGM3 (NOD.Cg-Prkdc^scid Il2^tm1Wjl Tg(CMV-IL3, CSF2, KITLG)1Eav/MloySzJ) mice were intravascularly engrafted with MOLM14-FLT3-ITD(D835Y) acute myeloid leukemia cells. Injection of leukemia cells was performed on 3/21/2022. Mice were randomized and dosing began three weeks following engraftment. […] Mice experiencing clinical signs prior to scheduled end-date, including weight loss, lethargy, hunched posture, ruffled coat, or hind limb paralysis were humanely euthanized.
Bone marrow aspirates were performed when the initial vehicle control mice became clinical, 9 days following initiation of treatment. Aspirates were centrifuged, treated with RBC lysis buffer, resuspended in 250 μL PBS, and two cytospin chamber slides were loaded with 125 μL. Cytospins were used to create two cytology slides per mouse: one for Wright-Giemsa staining and the other for huCD45 immunocytochemistry, if needed. Cytology slides were graded according to the number of leukemic cells identified per 400× field as follows: 0, none; 1, 1-5 CD45+ cells; 2, 6-10 CD45+ cells; 3, 11-15 CD45+ cells; 4, 16-30 CD45+ cells; 5, >30 CD45+ cells.
At necropsy, sections of femur, tibia, vertebra, and sternum were evaluated for the presence of leukemic cells using H&E and CD45 immunohistochemistry, if needed. Grades for long bones, vertebrae, and sternum were recorded as follows: 0, no leukemic cells; 1, <1% of cells; 2, 1-10% of cells; 3, 10-50% of bone marrow; 4, >50% of bone marrow. Sums of the individual grades were taken for each mouse (range 0 to 12).
Leukemic burden was measured in NSGS mice xenografted with MOLM14 FLT3-ITD(D835Y) and quantified using bone marrow (BM) aspirates. An initial BM aspirate, accompanied by peripheral CBC evaluation (submandibular samples), was collected at the time that clinical signs first appeared in control mice to verify AML engraftment prior to the start of drug dosing. Cytospin chambers were used to create two cytology slides per bone marrow sample. Aspirate samples were of high quality for 85% of samples. A semi-quantitative grading system was applied to each bone marrow aspirate according to the number of leukemic cells identified per 400× field as follows:
• 1: 1-5 leukemic cells (per HPF) • 2: 6-10 leukemic cells • 3: 11-15 leukemic cells • 4: 16-30 leukemic cells • 5: >30 leukemic cells
All mice had evidence of leukemia within the bone marrow aspirate. Histopathology scores we re-taken for long bones (femur and tibia), vertebrae, and sternum as follows: 0, no leukemic cells; 1, <1% of cells; 2, 1-10% of cells; 3, 10-50% of bone marrow; 4, >50% of bone marrow. Scores were totaled (range: 0 to 12) and plotted by group at necropsy. […] To incorporate survival, the bone marrow grade was divided by the time on test (FIG. 10).

hERG = hERG (Homo sapiens, UniProt Q12809); test: Window to the hERG IC50 at the dose studied (FIG. 9B); conditions: at the dose studied (30 mg/kg, mice)
hERG, sequence (Q12809 whole entry): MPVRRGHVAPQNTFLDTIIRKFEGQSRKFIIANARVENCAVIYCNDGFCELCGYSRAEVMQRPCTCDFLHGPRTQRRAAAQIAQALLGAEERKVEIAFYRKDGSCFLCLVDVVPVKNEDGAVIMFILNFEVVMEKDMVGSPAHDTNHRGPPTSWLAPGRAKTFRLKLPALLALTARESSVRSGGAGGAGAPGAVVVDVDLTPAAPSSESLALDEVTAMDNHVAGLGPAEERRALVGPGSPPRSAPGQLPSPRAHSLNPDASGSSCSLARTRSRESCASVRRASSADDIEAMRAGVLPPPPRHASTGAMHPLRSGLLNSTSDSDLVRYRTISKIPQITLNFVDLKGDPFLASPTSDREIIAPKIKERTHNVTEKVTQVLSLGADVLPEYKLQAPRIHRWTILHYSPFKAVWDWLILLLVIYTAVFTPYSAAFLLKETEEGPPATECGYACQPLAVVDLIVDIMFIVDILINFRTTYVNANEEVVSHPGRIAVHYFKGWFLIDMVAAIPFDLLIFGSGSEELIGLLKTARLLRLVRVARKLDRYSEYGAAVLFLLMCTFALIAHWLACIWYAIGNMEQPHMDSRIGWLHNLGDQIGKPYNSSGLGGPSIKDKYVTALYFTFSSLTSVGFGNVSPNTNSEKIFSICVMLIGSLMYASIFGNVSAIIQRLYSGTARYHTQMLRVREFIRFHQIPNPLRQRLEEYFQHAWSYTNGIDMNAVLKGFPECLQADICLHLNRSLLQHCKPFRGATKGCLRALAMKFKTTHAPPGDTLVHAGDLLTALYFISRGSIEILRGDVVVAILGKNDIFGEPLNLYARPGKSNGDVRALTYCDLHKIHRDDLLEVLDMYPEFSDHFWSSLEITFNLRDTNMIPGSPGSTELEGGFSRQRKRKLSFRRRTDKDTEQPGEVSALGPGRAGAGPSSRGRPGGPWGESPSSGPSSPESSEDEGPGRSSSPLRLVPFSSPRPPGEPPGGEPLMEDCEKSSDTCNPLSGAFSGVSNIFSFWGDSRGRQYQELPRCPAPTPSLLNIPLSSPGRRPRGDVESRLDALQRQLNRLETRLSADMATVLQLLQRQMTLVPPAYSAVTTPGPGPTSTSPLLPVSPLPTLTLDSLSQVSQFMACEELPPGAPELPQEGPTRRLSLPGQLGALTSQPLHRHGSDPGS

[2] = test system: MOLM14-FLT3-ITD (D835Y) AML cells; test: Caspase-Glo 3/7 apoptosis assay, time course; format: cell-based
MOLM14 (D835Y) cells = test: Combination drug screening, Cell Titer Glo, MOLM14 (D835Y) cells; conditions: FLT3 mutant setting (ITD-D835Y cells), Cell Titer Glo, 48 hours;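 further: MOLM14 cells with FLT3 ITD plus D835Y, 500 per well in 1536-well plates, 10-point dose ranges, luminescent viability after 48 h, negative Excess HSA indicates synergy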
Procedure: Briefly, 10 nL of the compound shown below was acoustically dispensed into 1536-well white polystyrene tissue culture-treated plates with an Echo 550 acoustic liquid handler (Labcyte). Cells were then added to compound-containing plate at a density of 500-cells/well in 5 μL of medium. A 6-point or 10-point custom concentration range was used for all listed drugs. Plates were incubated for 48 hours at standard incubator conditions covered by a stainless steel gasketed lid to prevent evaporation. 48h post compound addition, 3 μL of Cell Titer Glo (Promega) were added to each well and plates were incubated at room temperature for 15 minutes with the stainless-steel lid in place. Luminescence readings were taken using a Viewlux imager (PerkinElmer) with a 2 second exposure time per plate.
A smaller concentration indicates higher potency to synergize with Venetoclax.
A smaller concentration indicates higher potency to synergize with azacitidine.
as §1

In the case of `COc1cc2ncc(-c3nc(N[C@@H]4CCCNC4)c(F)cc3F)n2nc1C1CC1` [Compound 106, (R)-6-(6-cyclopropyl-7-methoxyimidazo[1,2-b]pyridazin-3-yl)-3,5-difluoro-N-(piperidin-3-yl)pyridin-2-amine], the “synergy with venetoclax or azacitidine” value (THP1 cells) is reported as “considerably more potent as a synergistic agent than either Gilteritinib or emavusertib (CA-4948)”, the survival ([1]; 30 mg/kg orally once/day M-F, 90 days, NSG-SGM3 mice) is reported as “Significant survival differences; also recorded: enhanced survival in mice compared to gilteritinib and CA-4948 (emavusertib); also recorded: improved survival compared to those treated with gilteritinib or emavusertib (CA-4948)” and the “plasma levels (Cmax and AUC) against comparators” value ([1]; 30 mg/kg, mice, FIG. 9B) is reported as “not due to higher plasma levels vs. gilteritinib or emavusertib”. For the same molecule, the “survival-adjusted leukemic burden (bone marrow grade divided by time on test)” value ([1]; 90 day study, 30 mg/kg) was “decreased scores compared to standard of care F02 (Gilteritinib); also recorded: superior in reducing survival-adjusted leukemic burden”, the “survival persisting after withdrawal of the compound” value ([1]; after 90 days of treatment at 30 mg/kg, study then ended) was 7 days and the “bone marrow grades (leukemic burden) at necropsy” value ([1]; sum of histopathology scores of long bones, vertebrae, sternum (range 0 to 12)) was “Decreased bone marrow grades”. The “window to the hERG IC50” value (hERG) was “larger window to the hERG IC50 than does emavusertib (CA-4948)”, the “combination activity with venetoclax (apoptosis induction)” value ([2]; dose level 6: gilteritinib 25 nM or Compound 106 12 nM with venetoclax 25 nM) was “much stronger than any of the other drug combinations” and the “combination activity with venetoclax (apoptosis induction over 24 hours)” value ([2]; dose level 7: 4 nM of Compound 106 and 8 nM of venetoclax) was “high activity”. The “cells entering apoptosis, combination with venetoclax” value ([2]; dose level 7: 4 nM of Compound 106 and 8 nM of venetoclax, four hours) was “about half of the cells enter into apoptosis in four hours”, the “combination activity with venetoclax (apoptosis induction over 24 hours)” value ([2]; dose level 8: 1.37 nM of Compound 106 and 2.7 nM of venetoclax) was “high activity” and the “cells stimulated to apoptosis” value ([2]; single agent, 1.37 nM, 12 hours of coverage) was “about 30%”. The “time at which apoptosis starts, single agent” value ([2]; single agent, even at the lowest dose of 1.37 nM, Caspase-Glo 3/7) was at most 12 h and the “synergy with venetoclax or azacitidine” value (MOLM14 (D835Y) cells) was “considerably more potent as a synergistic agent than either Gilteritinib or emavusertib (CA-4948)”.
